From US12501899B2, “Mite infestation treatment” (priority 2019, dated 2025)
Structures can show the parent of a compound that is named as a salt. Where two headings read alike, the source gives them in different places.

Key:
Rhipicephalus sanguineus = test: Topical acaricidal test on brown dog ticks; type: in vivo; settings: 168 h, 0.5 μl per tick, after 7 days of treatment
Experimental: Brown dog ticks, Rhipicephalus sanguineus, of 2nd stage, from a single cohort were used.
Three (3) compounds were tested, as well as a reference compound (Amitraze). For each compound tested and Amitraz, four doses (1000, 100, 10 and 1 ppm) were applied to the ticks topically. A negative control (acetone) and an untreated group were included for comparison. The experiments were carried out in triplicate.
Ten ticks were placed in a clear plastic container, measuring approximately 120 mm in diameter and 45 mm in height. The ticks were then anesthetized by direct exposure (for 10 seconds) to carbon dioxide. The treatments were then applied to the back (scutum) of each tick, using a Hamilton syringe, up to 0.5 μl of treatment per tick (1 application).
Cotton soaked in water was placed in each container to provide humidity throughout the experiment. The container was also vented throughout the experiment with a tube to introduce air into each container. The containers were maintained at a temperature of 23±3° C. Live, shocked and dead tick counts were taken daily after treatment for 7 days.
The averages in percentage of each evaluation category (healthy, knocked down and dead) were calculated, as well as the standard error. An analysis of variance (ANOVA) was performed using Minitab software, 16th edition.

Ixodes ricinus = test: Oral acaricidal test on ticks in membrane feeding wells with treated blood; type: in vivo; settings: for mortality at 1 ppm / mortality at 10 ppm / mortality at 100 ppm: Ixodes ricinus, po
Experimental: A laboratory study was conducted to determine the oral acaricidal properties of three compounds according to the invention (SN0305, SN0306 and SN0307) against Ixodes ricinus. Each compound was tested at 1, 10 and 100 ppm, and compared to a negative control corresponding to solvent alone (0.1% DMSO). Amitraz at 100 ppm was used as a positive control.
The Ixodes ricinus ticks (nymphs and adults) were placed for 24 hours on a membrane in feeding wells containing blood mixed with the tested compounds. Tick mortality (number of dead, moribund, or unaffected ticks in each well), attachment to the membrane (number of ticks attached/detached in each well), and the behavior (presence or absence of twitches) were examined 1, 3, 6, 12, 24, 48, 72, and 96 hours after the onset of tick exposure to the compounds.
Ticks (Ixodes ricinus) were collected. Collected adult females were kept separate from the nymphs and both were placed in sterile tubes in a humidity chamber to provide ˜80% humidity and 17° C. Only healthy ticks (females/nymphs) were chosen for the experiment.
Batches of 12 adults or nymphs were inserted into the feeding wells. After about 24 hours, their attachment was examined with a brush.
The efficiency of three compounds (SN0305, SN0306 and SN0307), each tested at three concentrations (1, 10, 100 ppm), was compared to the solvent control (0.1% DMSO, Sigma-Aldrich D-5879; Lot 101K0028) and to the positive control (Amitraze at 100 ppm).
Silicone-coated membranes with a thickness comprised between 110 and 140 μm were used for the construction of the feeding units.
Feeding units (sterilized acrylic glass tubes) were placed in feeding wells made of sterilized six-well plates.
3.1 ml of sterile 10^−3 M ATP-enriched blood was applied to each feeding well. Feeding wells were then inserted into a heated water bath (FIG. 12) and maintained at 37° C.±2° C.
Stock solutions of 100,000 ppm were prepared and tenth dilutions were carried out in 0.1% DMSO to reach the desired concentrations. After tick attachment (24 hours after placing the ticks in the feeding wells), 3.1 μl of the solutions were added to each feeding well containing 3.1 ml of blood. Blood was changed after 12 hours with fresh supplementation of the compounds to be tested. The ticks were exposed to the product for a total of 24 hours, after which the blood was again changed to fresh, untreated blood.
Tick mortality (number of dead, moribund or unaffected ticks in each well), attachment (number of attached/detached ticks in each well) and behavior (presence, absence and intensity of convulsions) were examined 1, 3, 6, 12, 24, 48, 72, and 96 hours after the start of tick exposure to the compound.

Question: How did the mortality at 1 ppm (Rhipicephalus sanguineus; 1 ppm topical) turn out when `Cc1cccc([C@H](C)c2c[nH]cn2)c1C` [Dexmedetomidine hydrochloride, (S)-4-[1-(2,3-dimethylphenyl)-ethyl]-1H-imidazole] was run?
Answer: 20%

Question: And the mortality at 10 ppm (Rhipicephalus sanguineus; 10 ppm topical)?
Answer: 93.3%

Question: And the mortality at 100 ppm (Rhipicephalus sanguineus; 100 ppm topical)?
Answer: 100%

Question: And the mortality at 1000 ppm (Rhipicephalus sanguineus; 1000 ppm topical)?
Answer: 100%

Question: What about the “effect in terms of tick detachment (in words)” value (Ixodes ricinus; 1, 10, 100 ppm, nymphs and adults) of the same compound?
Answer: very limited effect

Question: And the “detached nymphs in a replica” value (Ixodes ricinus; 1 ppm, nymphs)?
Answer: 1

Question: And the “detached adult ticks in a replica” value (Ixodes ricinus; 100 ppm, adult ticks)?
Answer: 1

Question: What about the mortality at 1 ppm (Ixodes ricinus; adult ticks, 1 ppm, 1 h, read-out: average percentage of adult tick mortality (moribund or dead adult ticks)) of the same compound?
Answer: 0%

Question: And the mortality at 1 ppm (Ixodes ricinus; adult ticks, 1 ppm, 3 h, read-out: average percentage of adult tick mortality (moribund or dead adult ticks))?
Answer: 0%

Question: And the mortality at 1 ppm (Ixodes ricinus; adult ticks, 1 ppm, 6 h, read-out: average percentage of adult tick mortality (moribund or dead adult ticks))?
Answer: 3.1%

Question: What about the mortality at 1 ppm (Ixodes ricinus; adult ticks, 1 ppm, 12 h, read-out: average percentage of adult tick mortality (moribund or dead adult ticks)) of the same compound?
Answer: 3.1%

Question: What about the mortality at 1 ppm (Ixodes ricinus; adult ticks, 1 ppm, 24 h, read-out: average percentage of adult tick mortality (moribund or dead adult ticks)) of the same compound?
Answer: 64.2%

Question: What about the mortality at 1 ppm (Ixodes ricinus; adult ticks, 1 ppm, 48 h, read-out: average percentage of adult tick mortality (moribund or dead adult ticks)) of the same compound?
Answer: 88.2%

Question: And the mortality at 1 ppm (Ixodes ricinus; adult ticks, 1 ppm, 72 h, read-out: average percentage of adult tick mortality (moribund or dead adult ticks))?
Answer: 100%

Question: What about the mortality at 1 ppm (Ixodes ricinus; adult ticks, 1 ppm, 96 h, read-out: average percentage of adult tick mortality (moribund or dead adult ticks)) of the same compound?
Answer: 100%

Question: What about the mortality at 10 ppm (Ixodes ricinus; adult ticks, 1 h, read-out: average percentage of adult tick mortality (moribund or dead adult ticks)) of the same compound?
Answer: 0%

Question: What about the mortality at 10 ppm (Ixodes ricinus; adult ticks, 3 h, read-out: average percentage of adult tick mortality (moribund or dead adult ticks)) of the same compound?
Answer: 0%

Question: And the mortality at 10 ppm (Ixodes ricinus; adult ticks, 6 h, read-out: average percentage of adult tick mortality (moribund or dead adult ticks))?
Answer: 5.6%

Question: And the mortality at 10 ppm (Ixodes ricinus; adult ticks, 12 h, read-out: average percentage of adult tick mortality (moribund or dead adult ticks))?
Answer: 11.1%

Question: What about the mortality at 10 ppm (Ixodes ricinus; adult ticks, 24 h, read-out: average percentage of adult tick mortality (moribund or dead adult ticks)) of the same compound?
Answer: 57.3%

Question: What about the mortality at 10 ppm (Ixodes ricinus; adult ticks, 48 h, read-out: average percentage of adult tick mortality (moribund or dead adult ticks)) of the same compound?
Answer: 79.5%

Question: And the mortality at 10 ppm (Ixodes ricinus; adult ticks, 72 h, read-out: average percentage of adult tick mortality (moribund or dead adult ticks))?
Answer: 96.9%

Question: What about the mortality at 10 ppm (Ixodes ricinus; adult ticks, 96 h, read-out: average percentage of adult tick mortality (moribund or dead adult ticks)) of the same compound?
Answer: 100%

Question: What about the mortality at 100 ppm (Ixodes ricinus; adult ticks, 100 ppm, 1 h, read-out: average percentage of adult tick mortality (moribund or dead adult ticks)) of the same compound?
Answer: 0%

Question: What about the mortality at 100 ppm (Ixodes ricinus; adult ticks, 100 ppm, 3 h, read-out: average percentage of adult tick mortality (moribund or dead adult ticks)) of the same compound?
Answer: 0%

Question: What about the mortality at 100 ppm (Ixodes ricinus; adult ticks, 100 ppm, 6 h, read-out: average percentage of adult tick mortality (moribund or dead adult ticks)) of the same compound?
Answer: 5.9%

Question: And the mortality at 100 ppm (Ixodes ricinus; adult ticks, 100 ppm, 12 h, read-out: average percentage of adult tick mortality (moribund or dead adult ticks))?
Answer: 11.8%

Question: And the mortality at 100 ppm (Ixodes ricinus; adult ticks, 100 ppm, 24 h, read-out: average percentage of adult tick mortality (moribund or dead adult ticks))?
Answer: 63.9%

Question: What about the mortality at 100 ppm (Ixodes ricinus; adult ticks, 100 ppm, 48 h, read-out: average percentage of adult tick mortality (moribund or dead adult ticks)) of the same compound?
Answer: 76.4%

Question: And the mortality at 100 ppm (Ixodes ricinus; adult ticks, 100 ppm, 72 h, read-out: average percentage of adult tick mortality (moribund or dead adult ticks))?
Answer: 91.3%

Question: What about the mortality at 100 ppm (Ixodes ricinus; adult ticks, 100 ppm, 96 h, read-out: average percentage of adult tick mortality (moribund or dead adult ticks)) of the same compound?
Answer: 100%

Question: What about the mortality at 1 ppm (Ixodes ricinus; nymphs, 1 ppm, 1 h, read-out: average percentage of mortality of tick nymphs (moribund or dead nymphs)) of the same compound?
Answer: 0%

Question: What about the mortality at 1 ppm (Ixodes ricinus; nymphs, 1 ppm, 3 h, read-out: average percentage of mortality of tick nymphs (moribund or dead nymphs)) of the same compound?
Answer: 0%

Question: And the mortality at 1 ppm (Ixodes ricinus; nymphs, 1 ppm, 6 h, read-out: average percentage of mortality of tick nymphs (moribund or dead nymphs))?
Answer: 13.8%

Question: And the mortality at 1 ppm (Ixodes ricinus; nymphs, 1 ppm, 12 h, read-out: average percentage of mortality of tick nymphs (moribund or dead nymphs))?
Answer: 31.3%

Question: What about the mortality at 1 ppm (Ixodes ricinus; nymphs, 1 ppm, 24 h, read-out: average percentage of mortality of tick nymphs (moribund or dead nymphs)) of the same compound?
Answer: 58.9%

Question: And the mortality at 1 ppm (Ixodes ricinus; nymphs, 1 ppm, 48 h, read-out: average percentage of mortality of tick nymphs (moribund or dead nymphs))?
Answer: 85.7%

Question: What about the mortality at 1 ppm (Ixodes ricinus; nymphs, 1 ppm, 72 h, read-out: average percentage of mortality of tick nymphs (moribund or dead nymphs)) of the same compound?
Answer: 100%

Question: What about the mortality at 1 ppm (Ixodes ricinus; nymphs, 1 ppm, 96 h, read-out: average percentage of mortality of tick nymphs (moribund or dead nymphs)) of the same compound?
Answer: 100%

Question: What about the mortality at 10 ppm (Ixodes ricinus; nymphs, 1 h, read-out: average percentage of mortality of tick nymphs (moribund or dead nymphs)) of the same compound?
Answer: 0%

Question: And the mortality at 10 ppm (Ixodes ricinus; nymphs, 3 h, read-out: average percentage of mortality of tick nymphs (moribund or dead nymphs))?
Answer: 9.2%

Question: What about the mortality at 10 ppm (Ixodes ricinus; nymphs, 6 h, read-out: average percentage of mortality of tick nymphs (moribund or dead nymphs)) of the same compound?
Answer: 24.9%

Question: What about the mortality at 10 ppm (Ixodes ricinus; nymphs, 12 h, read-out: average percentage of mortality of tick nymphs (moribund or dead nymphs)) of the same compound?
Answer: 48.3%

Question: What about the mortality at 10 ppm (Ixodes ricinus; nymphs, 24 h, read-out: average percentage of mortality of tick nymphs (moribund or dead nymphs)) of the same compound?
Answer: 83%

Question: And the mortality at 10 ppm (Ixodes ricinus; nymphs, 48 h, read-out: average percentage of mortality of tick nymphs (moribund or dead nymphs))?
Answer: 96.9%

Question: What about the mortality at 10 ppm (Ixodes ricinus; nymphs, 72 h, read-out: average percentage of mortality of tick nymphs (moribund or dead nymphs)) of the same compound?
Answer: 100%

Question: What about the mortality at 10 ppm (Ixodes ricinus; nymphs, 96 h, read-out: average percentage of mortality of tick nymphs (moribund or dead nymphs)) of the same compound?
Answer: 100%

Question: What about the mortality at 100 ppm (Ixodes ricinus; nymphs, 100 ppm, 1 h, read-out: average percentage of mortality of tick nymphs (moribund or dead nymphs)) of the same compound?
Answer: 0%

Question: What about the mortality at 100 ppm (Ixodes ricinus; nymphs, 100 ppm, 3 h, read-out: average percentage of mortality of tick nymphs (moribund or dead nymphs)) of the same compound?
Answer: 13.3%

Question: What about the mortality at 100 ppm (Ixodes ricinus; nymphs, 100 ppm, 6 h, read-out: average percentage of mortality of tick nymphs (moribund or dead nymphs)) of the same compound?
Answer: 33%

Question: And the mortality at 100 ppm (Ixodes ricinus; nymphs, 100 ppm, 12 h, read-out: average percentage of mortality of tick nymphs (moribund or dead nymphs))?
Answer: 59%

Question: And the mortality at 100 ppm (Ixodes ricinus; nymphs, 100 ppm, 24 h, read-out: average percentage of mortality of tick nymphs (moribund or dead nymphs))?
Answer: 92.9%

Question: And the mortality at 100 ppm (Ixodes ricinus; nymphs, 100 ppm, 48 h, read-out: average percentage of mortality of tick nymphs (moribund or dead nymphs))?
Answer: 100%

Question: What about the mortality at 100 ppm (Ixodes ricinus; nymphs, 100 ppm, 72 h, read-out: average percentage of mortality of tick nymphs (moribund or dead nymphs)) of the same compound?
Answer: 100%

Question: What about the mortality at 100 ppm (Ixodes ricinus; nymphs, 100 ppm, 96 h, read-out: average percentage of mortality of tick nymphs (moribund or dead nymphs)) of the same compound?
Answer: 100%

Question: And the “ticks affected (convulsion, morbidity or death of ticks)” value (Ixodes ricinus; from 1 hour of exposure, regardless of the concentration tested (1, 10, 100 ppm))?
Answer: 100%
